Earlier results in US20120220630A1, “PRUCALOPRIDE ORAL SOLUTION” (Shire-Movetis NV, priority 2011, published 2012).

Key:
5-HT2A receptors = 5-HT2A receptors (Homo sapiens, UniProt P28223)
[1] = tested on: colonic motility and defecation; details: in animals
5-HT4 receptors = 5-HT4 receptors (Homo sapiens, UniProt Q13639)
Sequence of 5-HT4 receptors (Q13639 whole entry): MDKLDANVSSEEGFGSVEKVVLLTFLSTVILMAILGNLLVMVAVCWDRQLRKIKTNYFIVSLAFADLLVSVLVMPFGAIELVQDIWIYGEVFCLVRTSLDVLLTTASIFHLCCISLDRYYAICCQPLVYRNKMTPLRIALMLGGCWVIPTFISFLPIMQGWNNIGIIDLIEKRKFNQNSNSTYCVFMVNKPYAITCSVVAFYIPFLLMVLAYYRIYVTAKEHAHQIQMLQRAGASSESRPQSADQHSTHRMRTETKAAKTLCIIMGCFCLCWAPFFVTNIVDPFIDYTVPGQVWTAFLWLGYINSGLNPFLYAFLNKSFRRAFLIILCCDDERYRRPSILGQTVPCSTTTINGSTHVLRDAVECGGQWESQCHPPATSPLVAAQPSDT

Sequence of 5-HT2A receptors (P28223 whole entry): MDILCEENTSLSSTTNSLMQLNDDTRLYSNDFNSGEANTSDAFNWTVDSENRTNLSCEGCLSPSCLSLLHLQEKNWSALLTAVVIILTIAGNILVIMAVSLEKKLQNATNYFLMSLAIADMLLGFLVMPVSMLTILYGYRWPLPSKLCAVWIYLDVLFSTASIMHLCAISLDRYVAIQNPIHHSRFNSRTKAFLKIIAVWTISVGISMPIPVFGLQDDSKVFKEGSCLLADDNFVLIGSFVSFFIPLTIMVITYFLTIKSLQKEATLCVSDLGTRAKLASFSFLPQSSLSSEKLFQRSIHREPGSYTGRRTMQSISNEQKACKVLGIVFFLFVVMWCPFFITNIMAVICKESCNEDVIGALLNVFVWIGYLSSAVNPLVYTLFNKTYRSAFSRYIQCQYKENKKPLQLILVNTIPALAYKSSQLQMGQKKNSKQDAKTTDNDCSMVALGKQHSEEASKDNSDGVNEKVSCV

## COCCCN1CCC(NC(=O)c2cc(Cl)c(N)c3c2OCC3)CC1 [Prucalopride, 4-amino-5-chloro-2,3-dihydro-N-[1-(3-methoxypropyl)-4-piperidinyl]-7-benzofuran-carboxamide]
5-HT3 receptors
  affinity for 5-HT3 receptors: no affinity
5-HT2A receptors
  affinity for 5-HT2A receptors: no affinity
[1]
  colonic motility and defecation: stimulates colonic motility and defecation
5-HT4 receptors
  agonism of 5-HT4 receptors: potent and selective agonist
